This is an account of results in publication PMC4767141, “Discovery of Potent, Orally Bioavailable, Small-Molecule Inhibitors of WNT Signaling from a Cell-Based Pathway Screen” (Journal of Medicinal Chemistry, 2015).

Structures are written as SMILES. Like-named read-outs stand apart in the source and are kept apart here. A value given as a limit tells only on which side of the number the result lay.

Data set [1] in a line: pKa of the pyridine nitrogen. The following applies: measured at Cyprotex. The data set is classed as physicochemical. As to the method:
[32] pKa measurement was conducted at Cyprotex according to their published protocol: .

In a further data set the target is CYP450 2B8 (Homo sapiens, UniProt P20813). The data set can be described thus: CYP450 inhibition.
A short description of data set [2]: Caco-2 Papp determination. The class given is in vitro ADME, human.
Another data set concerns the target CYP450 1A2 (Homo sapiens, UniProt P05177). The data set can be described thus: CYP450 inhibition.
The next data set concerns the target CYP450 2D6 (Homo sapiens, UniProt P10635). The data set can be described thus: CYP450 inhibition. The class given is in vitro ADME.
The target of a further data set is CYP450 2C9 (Homo sapiens, UniProt P11712). In words: CYP450 inhibition. The class given is in vitro ADME.
In another data set the target is CYP450 2C19 (Homo sapiens, UniProt P33261). In words: CYP450 inhibition. The data set is classed as in vitro ADME.
Another data set is described as follows: In vivo mouse PK. The following applies: iv dosing.
Data set [3] in a line: Clint determination. The class given is in vitro ADME. The following applies: mouse, microsomes, pH 7.4, mouse microsomes, read-out: Clint (μL/min/mg) Mouse.
A short description of data set [4]: Clint determination. The class given is in vitro ADME. The following applies: human, microsomes, pH 7.4, human microsomes, read-out: Clint (μL/min/mg) Human.
Data set [5] in a line: Clint determination. The data set is classed as in vitro ADME. The following applies: rat, microsomes, pH 7.4, rat microsomes, read-out: Clint (μL/min/mg) Rat.
The nature of data set [6]: Aqueous (thermodynamic) solubility. The note with it: phosphate buffer pH 7.4. The class given is physicochemical.

CYP450 2B8, sequence (P20813 whole entry): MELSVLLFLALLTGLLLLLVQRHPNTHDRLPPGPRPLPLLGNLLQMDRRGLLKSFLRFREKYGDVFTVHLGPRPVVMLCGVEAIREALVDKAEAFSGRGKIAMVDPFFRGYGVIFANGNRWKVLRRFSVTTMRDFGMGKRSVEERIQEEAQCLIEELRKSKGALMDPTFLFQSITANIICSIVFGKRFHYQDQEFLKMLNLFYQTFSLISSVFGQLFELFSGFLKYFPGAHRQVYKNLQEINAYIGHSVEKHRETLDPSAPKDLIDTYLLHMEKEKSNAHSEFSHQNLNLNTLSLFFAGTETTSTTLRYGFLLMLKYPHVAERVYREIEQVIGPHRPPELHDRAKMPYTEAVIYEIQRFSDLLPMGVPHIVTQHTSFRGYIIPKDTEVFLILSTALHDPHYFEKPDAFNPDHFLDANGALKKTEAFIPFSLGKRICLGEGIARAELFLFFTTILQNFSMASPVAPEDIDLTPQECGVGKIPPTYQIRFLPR
CYP450 1A2, sequence (P05177 whole entry): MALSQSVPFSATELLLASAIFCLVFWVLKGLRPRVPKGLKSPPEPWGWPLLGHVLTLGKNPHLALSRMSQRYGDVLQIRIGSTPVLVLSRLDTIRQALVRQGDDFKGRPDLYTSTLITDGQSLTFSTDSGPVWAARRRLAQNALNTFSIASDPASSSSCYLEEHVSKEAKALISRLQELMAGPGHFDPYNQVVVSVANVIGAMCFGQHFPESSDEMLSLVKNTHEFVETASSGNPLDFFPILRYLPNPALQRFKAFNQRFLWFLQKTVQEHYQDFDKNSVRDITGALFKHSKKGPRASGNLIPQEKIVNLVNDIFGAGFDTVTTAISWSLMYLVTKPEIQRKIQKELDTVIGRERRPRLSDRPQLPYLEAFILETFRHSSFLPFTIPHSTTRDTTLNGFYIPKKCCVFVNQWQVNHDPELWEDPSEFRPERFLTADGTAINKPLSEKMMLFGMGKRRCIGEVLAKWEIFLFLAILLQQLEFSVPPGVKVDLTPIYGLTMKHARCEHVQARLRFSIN
CYP450 2D6, sequence (P10635 whole entry): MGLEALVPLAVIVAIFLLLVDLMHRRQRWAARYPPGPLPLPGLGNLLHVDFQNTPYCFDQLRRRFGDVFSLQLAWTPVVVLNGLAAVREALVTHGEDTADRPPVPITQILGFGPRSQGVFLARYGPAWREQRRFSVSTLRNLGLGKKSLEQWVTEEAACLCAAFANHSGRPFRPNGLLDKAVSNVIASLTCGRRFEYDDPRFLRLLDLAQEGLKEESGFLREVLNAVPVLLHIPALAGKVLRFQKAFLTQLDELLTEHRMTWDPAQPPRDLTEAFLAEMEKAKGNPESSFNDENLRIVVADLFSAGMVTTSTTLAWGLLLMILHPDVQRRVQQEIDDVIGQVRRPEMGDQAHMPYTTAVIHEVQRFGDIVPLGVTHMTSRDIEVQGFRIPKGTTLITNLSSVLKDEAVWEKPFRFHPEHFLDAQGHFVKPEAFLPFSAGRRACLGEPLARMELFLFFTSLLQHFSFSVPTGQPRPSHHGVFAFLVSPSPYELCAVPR
CYP450 2C9, sequence (P11712 whole entry): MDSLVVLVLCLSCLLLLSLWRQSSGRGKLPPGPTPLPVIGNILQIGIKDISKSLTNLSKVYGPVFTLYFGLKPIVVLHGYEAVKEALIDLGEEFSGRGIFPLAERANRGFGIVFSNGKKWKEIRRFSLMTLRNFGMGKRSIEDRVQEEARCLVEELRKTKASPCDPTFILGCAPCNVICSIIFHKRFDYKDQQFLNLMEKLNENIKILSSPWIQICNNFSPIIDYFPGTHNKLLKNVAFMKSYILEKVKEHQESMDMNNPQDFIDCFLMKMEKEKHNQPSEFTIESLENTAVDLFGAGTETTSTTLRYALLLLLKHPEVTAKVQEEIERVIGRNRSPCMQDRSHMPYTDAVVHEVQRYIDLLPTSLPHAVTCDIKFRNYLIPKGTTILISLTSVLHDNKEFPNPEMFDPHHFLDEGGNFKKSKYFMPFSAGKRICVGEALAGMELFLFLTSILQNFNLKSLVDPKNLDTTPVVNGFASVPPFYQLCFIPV
CYP450 2C19, sequence (P33261 whole entry): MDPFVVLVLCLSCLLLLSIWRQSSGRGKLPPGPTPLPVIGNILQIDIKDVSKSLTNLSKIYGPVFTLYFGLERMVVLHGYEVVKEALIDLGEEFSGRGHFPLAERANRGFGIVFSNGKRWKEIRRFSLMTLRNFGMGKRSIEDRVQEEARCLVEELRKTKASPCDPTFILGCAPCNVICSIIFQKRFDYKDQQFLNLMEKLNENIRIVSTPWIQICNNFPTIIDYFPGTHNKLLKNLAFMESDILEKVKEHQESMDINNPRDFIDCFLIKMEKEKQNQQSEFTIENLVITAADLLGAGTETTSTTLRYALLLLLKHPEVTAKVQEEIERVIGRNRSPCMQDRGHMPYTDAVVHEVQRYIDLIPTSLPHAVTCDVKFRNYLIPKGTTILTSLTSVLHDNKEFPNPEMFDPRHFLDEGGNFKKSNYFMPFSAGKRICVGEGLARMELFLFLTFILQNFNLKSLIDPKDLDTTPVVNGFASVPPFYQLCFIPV

As usually defined, the pKa is the negative logarithm of the acid dissociation constant. Low readings indicate a stronger acid or weaker base, high ones a weaker acid or stronger base. `c1cc(N2CCCCC2)ccn1` [4-(piperidin-1-yl)pyridine]: the pKa in data set [1] is 9.42.
A word on the IC50: it is the concentration needed to halve the response being measured. Lower therefore signals inhibition by little substance. For orientation: Papp means a coefficient for how fast a substance crosses the barrier. Read a high Papp as fast passage. As to `NC(=O)C1CCN(c2c(Cl)cncc2Cl)CC1` [Compound 9, 1-(3,5-Dichloropyridin-4-yl)piperidine-4-carboxamide], the concentration for half-maximal inhibition (IC50) against CYP450 2B8, against CYP450 1A2, against CYP450 2D6, at CYP450 2C9 and against CYP450 2C19 was more than 20 µM throughout. For the same compound, the “Caco-2 efflux (efflux ratio, ER)” value in data set [2] is given as “no efflux”. Besides, the Papp at 2 h, 1 μM in data set [2] (human, Caco-2, 1 μM, pH 7.4) came out at 36 ×10⁻⁶ cm/s.
`NC(=O)C1CCN(c2c(Cl)cncc2-c2ccc(N3CCOCC3)cc2)CC1` [Compound 38, 1-(3-Chloro-5-(4-morpholin-4-ylphenyl)pyridin-4-yl)piperidine-4-carboxamide]: the in vivo clearance entry in the data set “In vivo mouse PK” is “greater than liver blood flow”.
Consider `O=C1NCCC12CCN(c1c(Cl)cncc1-c1ccc(N3CCOCC3)cc1)C2` (centres unmarked) [Compound 52], for which the microsomal CLint at 1 μM in “Clint determination [3]” came to 827 µL/min/mg; in “Clint determination [4]”, 335 µL/min/mg.
Consider `O=C1CC2(CCN(c3c(Cl)cncc3-c3ccc(N4CCOCC4)cc3)CC2)C(=O)N1` [Compound 54, 8-(3-Chloro-5-(4-morpholin-4-ylphenyl)pyridin-4-yl)-2,8-diazaspiro[4.5]decan-1,3-dione], for which the microsomal CLint at 1 μM in the data set “Clint determination [3]” is 54 µL/min/mg; in “Clint determination [5]”, 23 µL/min/mg; in the data set “Clint determination [4]”, 67 µL/min/mg.
With `O=C1NCCC12CCN(c1c(Cl)cncc1-c1ccc(N3CCCCC3)cc1)CC2` [Compound 65], in the data set “Clint determination [3]”, the microsomal CLint at 1 μM is more than 1000 µL/min/mg.
As for `O=C1NCCC12CCN(c1c(Cl)cncc1-c1ccc(-c3ccncc3)cc1)CC2` [Compound 69], in the data set “Clint determination [4]”, the microsomal CLint at 1 μM is 100 µL/min/mg.
One may read the solubility as the concentration that dissolves in the medium under given conditions. A high value points to much dissolved substance. In turn, `Cn1cc(-c2ccc(-c3cncc(Cl)c3N3CCC4(CC3)CC(=O)NC4=O)cc2)cn1` [Compound 81, 8-(3-Chloro-5-(4-(1-methyl-1H-pyrazol-4-yl)phenyl)pyridin-4-yl)-2,8-diazaspiro[4.5]decane-1,3-dione] returned a solubility in [6] of less than 1 µg/mL.
